{"source": "patent US8569371B2", "about": "“Crystal forms of O-desmethylvenlafaxine fumarate” (Pliva Hrvatska D.O.O., priority 2010, dated 2013)", "test": "Differential Scanning Calorimetry (DSC) comparison of crystal forms", "type": "physicochemical", "conditions": "comparison of DSC curves (FIG. 6); heating rate 10° C./min, 20-200° C.; melting 34° C. higher than Form I and 16° C. higher than Form II", "experimental": "Differential Scanning Calorimetry (DSC) A. Equipment Instrument: TA Universal Analysis Q1000 Software: Universal Analysis 2000 B. Experimental Parameters Heating rate: 10° C./min Temperature range: 20-200° C. Sample size: 2.00-5.00 mg Purge gas: Nitrogen, 40 ml/min Crucible: Hermetic pinholed", "data": [{"molecule": "CN(C)CC(c1ccc(O)cc1)C1(O)CCCCC1.O=C(O)/C=C/C(=O)O", "note": "(stereo not shown) [O-Desvenlafaxine fumarate Form N, O-desmethylvenlafaxine fumarate]", "values": [{"measurement": "thermal stability as compared to forms I and II", "result": "enhanced thermal stability"}]}]}
